In patent publication US20230067609A1, “ENDOPHYTIC MICROBES FOR GROWTH PROMOTION OF CROP PLANTS AND SUPPRESSION OF AGGRESSIVE INVASIVE PLANT SPECIES, BIOHERBICIDES COMPRISING THE SAME AND METHODS OF USE THEREOF” (priority 2018, published 2023):

Assays:
Type in all cases: in vivo
Poa annua = assay: Screen of short-chain organic acids for effects on roots, agarose medium, seeds inoculated with Pseudomonas strain SLB4; settings: for Inhibitory Activity On Germination / Inhibitory Activity On Gravitropism / Inhibitory Activity On Hair Length / Inhibitory Activity On Root Length / Inhibitory Activity On Bact. Entry: organic acids 0-1 mM in 0.7% agarose, 7 days; for Inhibitory Activity On Bact. Entry: Pseudomonas strain SLB4
Poa reptans seedlings = assay: Seeds germinated on agarose with and without 0.05% arginine
Source text: In laboratory experiments, we germinated seeds of the grass Poa reptans on agarose with and without 0.05% arginine.
This is further evidence that exposure of plants to arginine results in excess production of reactive oxygen species (ROS).

[1] = system: Phragmites australis plants; assay: Sodium butyrate applied to roots over a 6-week period; settings: 10 mM applied to roots over a 6-week period

Row | SMILES | seedling growth inhibition (Poa annua) | Inhibitory Activity On Germination (Poa annua) | Inhibitory Activity On Gravitropism (Poa annua) | Inhibitory Activity On Hair Length (Poa annua) | Inhibitory Activity On Root Length (Poa annua) | Inhibitory Activity On Bact. Entry (Poa annua) | chlorophylls in shoot cells (Poa reptans seedlings; 0.05% arginine) | growth of shoots and roots (Poa reptans seedlings; 0.05% arginine in agarose, 7 days) | colonization of chloroplasts by bacteria (Poa reptans seedlings; 0.05% arginine, leaf cells, microscopy) | root hairs (Poa reptans seedlings; arginine-treated seedlings) | hydrogen peroxide around roots (Poa reptans seedlings; diaminobenzidine tetrahydrochloride stain) | superoxide in roots (Poa reptans seedlings; nitro blue tetrazolium staining) | effects on roots and shoots [1]
1 | CCC(=O)O [Propionic, Propionic acid] | seedling growth inhibition occurred | No | Yes | Yes | Yes | Yes |  |  |  |  |  |  | 
2 | N=C(N)NCCC[C@H](N)C(=O)O [arginine] |  |  |  |  |  |  | lack evidence of chlorophylls | repression of shoots and roots | all chloroplasts were colonized by actively motile bacteria | longer root hairs | high levels of hydrogen peroxide around roots | higher presence of superoxide | 
3 | CC(=O)O [Acetic, Acetic acid] | seedling growth inhibition occurred | No | No | No | Yes | No |  |  |  |  |  |  | 
4 | O=C(O)[C@]1(O)C[C@@H](O)[C@@H](O)[C@H](O)C1 [Quinic, Quinic acid] |  | No | No | No | No | No |  |  |  |  |  |  | 
5 | O=C(O)C(=O)O [Oxalic, Oxalic acid] | seedling growth inhibition occurred | No | Yes | Yes | Yes | Yes |  |  |  |  |  |  | 
6 | CCCCCC(=O)O [Hexanoic, Hexanoic acid] | seedling growth inhibition occurred | No | Yes | Yes | Yes | No |  |  |  |  |  |  | 
7 | O=C(O)c1ccccc1 [Benzoic, Benzoic acid] | seedling growth inhibition occurred | No | Yes | Yes | Yes | No |  |  |  |  |  |  | 
8 | O=C(O)CC(O)(CC(=O)O)C(=O)O [Citric, Citric acid] | seedling growth inhibition occurred | No | Yes | Yes | Yes | No |  |  |  |  |  |  | 
9 | CCCC(=O)O [Butyric, Butyric acid] | seedling growth inhibition occurred | No | Yes | Yes | Yes | Yes |  |  |  |  |  |  | 
10 | CCCC(=O)[O-].[Na+] [sodium butyrate] |  |  |  |  |  |  |  |  |  |  |  |  | suppression of root and shoot growth, reduced root branching, root browning, and increased bacterial and fungal growth on roots
